Reference: US12459932B2, “KIF18A inhibitors” (AMGEN INC., priority 2018, dated 2025)
Structures can show the parent of a compound that is named as a salt. Values belong to the compound of their own block, whether it stands above or below them.

Molecular target: T1, Recombinant human KIF18A (1-467 His-tagged) (Homo sapiens, UniProt Q8NI77)
T1 construct: Recombinant human KIF18A (1-467 His-tagged) protein; His
Test: KIF18A Enzyme Assay: microtubule-stimulated ATPase activity (ADP-Glo)
Assay type: biochemical
Conditions: 30 nM KIF18A, 30 μg/mL pig microtubules, ATP 75 μM (Km), ADP-Glo luminescence
How it was run: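 Measures microtubule-stimulated ATPase activity as ADP formed, detected by luminescence. Compounds were tested as 2-fold serial dilutions over 22 points. IC50 values came from four-parameter logistic fits.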

T1 sequence (Q8NI77 1-467): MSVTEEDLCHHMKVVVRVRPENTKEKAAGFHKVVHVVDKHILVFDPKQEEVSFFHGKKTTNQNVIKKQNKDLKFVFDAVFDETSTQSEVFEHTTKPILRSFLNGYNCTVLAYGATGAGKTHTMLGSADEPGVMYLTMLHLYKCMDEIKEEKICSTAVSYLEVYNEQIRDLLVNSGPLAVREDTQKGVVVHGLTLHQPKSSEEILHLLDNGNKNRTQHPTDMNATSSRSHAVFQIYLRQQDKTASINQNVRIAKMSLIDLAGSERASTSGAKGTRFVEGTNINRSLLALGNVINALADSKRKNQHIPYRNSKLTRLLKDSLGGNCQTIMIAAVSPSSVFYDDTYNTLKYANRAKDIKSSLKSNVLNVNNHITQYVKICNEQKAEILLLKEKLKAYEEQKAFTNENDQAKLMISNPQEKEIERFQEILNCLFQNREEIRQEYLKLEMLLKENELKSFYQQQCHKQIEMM
T1 sequence (P02550 whole entry partner): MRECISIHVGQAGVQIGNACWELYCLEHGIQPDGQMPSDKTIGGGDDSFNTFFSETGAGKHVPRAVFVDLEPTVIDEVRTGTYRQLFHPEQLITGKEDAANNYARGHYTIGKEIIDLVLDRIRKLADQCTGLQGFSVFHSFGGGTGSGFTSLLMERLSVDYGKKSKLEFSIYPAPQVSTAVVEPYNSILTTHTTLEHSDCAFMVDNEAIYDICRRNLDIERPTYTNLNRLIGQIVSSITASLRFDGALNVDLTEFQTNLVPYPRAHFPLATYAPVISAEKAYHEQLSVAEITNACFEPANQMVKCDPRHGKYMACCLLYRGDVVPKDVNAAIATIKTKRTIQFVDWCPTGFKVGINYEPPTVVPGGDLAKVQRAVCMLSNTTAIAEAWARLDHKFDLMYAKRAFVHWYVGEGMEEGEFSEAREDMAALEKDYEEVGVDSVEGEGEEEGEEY
T1 sequence (P02554 whole entry partner): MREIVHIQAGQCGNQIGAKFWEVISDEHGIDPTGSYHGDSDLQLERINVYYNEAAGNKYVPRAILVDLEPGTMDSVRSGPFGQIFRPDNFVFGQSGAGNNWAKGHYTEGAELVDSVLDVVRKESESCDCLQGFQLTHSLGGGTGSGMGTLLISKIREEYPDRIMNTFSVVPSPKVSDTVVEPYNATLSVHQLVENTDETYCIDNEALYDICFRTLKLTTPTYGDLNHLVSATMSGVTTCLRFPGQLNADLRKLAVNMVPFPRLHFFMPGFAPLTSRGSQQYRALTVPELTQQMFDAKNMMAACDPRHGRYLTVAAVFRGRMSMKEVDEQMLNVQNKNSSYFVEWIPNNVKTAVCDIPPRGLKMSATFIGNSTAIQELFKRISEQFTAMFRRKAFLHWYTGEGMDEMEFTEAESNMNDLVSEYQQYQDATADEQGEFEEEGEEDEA

SMILES: CC(C)(O)CCOc1cccc(NC(=O)c2ccc(NS(=O)(=O)CCO)cc2N2CCC3(CC2)CC3)n1 [Example 16-5, N-(6-(3-Hydroxy-3-methylbutoxy)pyridin-2-yl)-4-((2-hydroxyethyl)sulfonamido)-2-(6-azaspiro[2.5]octan-6-yl)benzamide]
- IC50: 84 nM

SMILES: O=C(Nc1cccc(OCCC(O)C(F)(F)F)n1)c1ccc(NS(=O)(=O)CCO)cc1N1CCC2(CC1)CC2 (stereo not drawn) [Example 16-6, 4-((2-Hydroxyethyl)sulfonamido)-2-(6-azaspiro[2.5]octan-6-yl)-N-(6-(4,4,4-trifluoro-3-hydroxybutoxy)pyridin-2-yl)benzamide]
- IC50: 81 nM

SMILES: CC(O)CCOc1cccc(NC(=O)c2ccc(NS(=O)(=O)CCO)cc2N2CCC3(CC2)CC3)n1 (stereo not drawn) [Example 16-7, N-(6-(3-Hydroxybutoxy)pyridin-2-yl)-4-((2-hydroxyethyl)sulfonamido)-2-(6-azaspiro[2.5]octan-6-yl)benzamide]
- IC50: 31 nM

SMILES: Cc1cc(NC(=O)c2ccc(NS(=O)(=O)CCO)cc2N2CCC3(CC2)CC3)nc(OCCC(F)(F)F)c1 [Example 17, 4-((2-Hydroxyethyl)sulfonamido)-N-(4-methyl-6-(3,3,3-trifluoropropoxy)pyridin-2-yl)-2-(6-azaspiro[2.5]octan-6-yl)benzamide]
- IC50: 24 nM

SMILES: Cc1cc(NC(=O)c2ccc(NS(=O)(=O)CCO)cc2N2CCC3(CC2)CC3)nc(OCCCC(F)(F)F)c1 [Example 17-3, 4-((2-Hydroxyethyl)sulfonamido)-N-(4-methyl-6-(4,4,4-trifluorobutoxy)pyridin-2-yl)-2-(6-azaspiro[2.5]octan-6-yl)benzamide]
- IC50: 184 nM

SMILES: Cc1ccc(NC(=O)c2ccc(NS(=O)(=O)CCO)cc2N2CCC3(CC2)CC3)nc1N1CCOCC1 [Example 18, 4-((2-Hydroxyethyl)sulfonamido)-N-(5-methyl-6-morpholinopyridin-2-yl)-2-(6-azaspiro[2.5]octan-6-yl)benzamide]
- IC50: 12 nM

SMILES: C[C@@H]1CN(c2cc(C3CC3)cc(NC(=O)c3ccc(NS(=O)(=O)CCO)cc3N3CCC4(CC3)CC4)n2)CCO1 [Example 19, (R)—N-(4-cyclopropyl-6-(2-methylmorpholino)pyridin-2-yl)-4-((2-hydroxyethyl)sulfonamido)-2-(6-azaspiro[2.5]octan-6-yl)benzamide]
- IC50: 87 nM

SMILES: C[C@@H]1CN(c2cc(C(F)(F)F)cc(NC(=O)c3ccc(NS(=O)(=O)CCO)cc3N3CCC4(CC3)CC4)n2)CCO1 [Example 20, (R)-4-((2-Hydroxyethyl)sulfonamido)-N-(6-(2-methylmorpholino)-4-(trifluoromethyl)pyridin-2-yl)-2-(6-azaspiro[2.5]octan-6-yl)benzamide]
- IC50: 93 nM

SMILES: N#Cc1ccc(NC(=O)c2ccc(NS(=O)(=O)CCO)cc2N2CCC3(CC2)CC3)nc1N1CCC(F)(F)CC1 [Example 21, N-(5-Cyano-6-(4,4-difluoropiperidin-1-yl)pyridin-2-yl)-4-((2-hydroxyethyl)sulfonamido)-2-(6-azaspiro[2.5]octan-6-yl)benzamide]
- IC50: 25 nM

SMILES: Cc1ccc(NC(=O)c2ccc(NS(=O)(=O)CCO)cc2N2CCC3(CC2)CC3)nc1N1CCC(F)(F)CC1 [Example 22, N-(6-(4,4-Difluoropiperidin-1-yl)-5-methylpyridin-2-yl)-4-((2-hydroxyethyl)sulfonamido)-2-(6-azaspiro[2.5]octan-6-yl)benzamide]
- IC50: 41 nM

SMILES: Cc1cc(NC(=O)c2ccc(NS(=O)(=O)CCO)cc2N2CCC3(CC2)CC3)nc(C2CCC(F)(F)CC2)c1 [Example 23, N-(6-(4,4-difluorocyclohexyl)-4-methylpyridin-2-yl)-4-((2-hydroxyethyl)sulfonamido)-2-(6-azaspiro[2.5]octan-6-yl)benzamide]
- IC50: 41 nM

SMILES: C[C@@H]1CN(c2nc(NC(=O)c3ccc(NS(=O)(=O)CCO)cc3N3CCC4(CC3)CC4)ccc2F)CCO1 [Example 24, (R)-N-(5-Fluoro-6-(2-methylmorpholino)pyridin-2-yl)-4-((2-hydroxyethyl)sulfonamido)-2-(6-azaspiro[2.5]octan-6-yl)benzamide]
- IC50: 33 nM

SMILES: C[C@@H]1CN(c2cc(C#N)cc(NC(=O)c3ccc(NS(=O)(=O)CCO)cc3N3CCC4(CC3)CC4)n2)CCO1 [Example 25, (R)-N-(4-Cyano-6-(2-methylmorpholino)pyridin-2-yl)-4-((2-hydroxyethyl)sulfonamido)-2-(6-azaspiro[2.5]octan-6-yl)benzamide]
- IC50: 41 nM

SMILES: CC(C)(C)S(=N)(=O)c1cccc(NC(=O)c2ccc(NS(=O)(=O)CCO)cc2N2CCC3(CC2)CC3)n1 (stereo not drawn) [Example 26, 4-((2-Hydroxyethyl)sulfonamido)-N-(6-(2-methylpropan-2-ylsulfonimidoyl)pyridin-2-yl)-2-(6-azaspiro[2.5]octan-6-yl)benzamide]
- IC50: 363 nM

SMILES: O=C(Nc1cccc(OCCC(F)(F)F)n1)c1ccc(S(=O)(=O)C2CNC2)cc1N1CCC2(CC1)CC2 [Example 31, 4-(Azetidin-3-ylsulfonyl)-2-(6-azaspiro[2.5]octan-6-yl)-N-(6-(3,3,3-trifluoropropoxy)pyridin-2-yl)benzamide trifluoroacetate]
- IC50: 55 nM

The next lines start with the values.

- IC50: 63 nM
SMILES: CN1CC(COc2cccc(NC(=O)c3ccc(NS(=O)(=O)CCO)cc3N3CCC4(CC3)CC4)n2)C1 [Example 16-3, 4-((2-Hydroxyethyl)sulfonamido)-N-(6-((1-methylazetidin-3-yl)methoxy)pyridin-2-yl)-2-(6-azaspiro[2.5]octan-6-yl)benzamide]

- IC50: 115 nM
SMILES: CC(O)COc1cccc(NC(=O)c2ccc(NS(=O)(=O)CCO)cc2N2CCC3(CC2)CC3)n1 (stereo not drawn) [Example 16-4, 4-((2-Hydroxyethyl)sulfonamido)-N-(6-(2-hydroxypropoxy)pyridin-2-yl)-2-(6-azaspiro[2.5]octan-6-yl)benzamide]

- IC50: 18 nM
SMILES: O=C(Nc1cccc(OCC(O)C(F)(F)F)n1)c1ccc(NS(=O)(=O)CCO)cc1N1CCC2(CC1)CC2 (stereo not drawn) [Example 16-8, 4-((2-Hydroxyethyl)sulfonamido)-2-(6-azaspiro[2.5]octan-6-yl)-N-(6-(3,3,3-trifluoro-2-hydroxypropoxy)pyridin-2-yl)benzamide]

- IC50: 51 nM
SMILES: O=C(Nc1cccc(OCCC(F)F)n1)c1ccc(NS(=O)(=O)CCO)cc1N1CCC2(CC1)CC2 [Example 16-9, N-(6-(3,3-Difluoropropoxy)pyridin-2-yl)-4-((2-hydroxyethyl)sulfonamido)-2-(6-azaspiro[2.5]octan-6-yl)benzamide]

- IC50: 68 nM
SMILES: Cc1cc(NC(=O)c2ccc(NS(=O)(=O)CCO)cc2N2CCC3(CC2)CC3)nc(OCC(O)C(F)(F)F)c1 (stereo not drawn) [Example 17-1, 4-((2-Hydroxyethyl)sulfonamido)-N-(4-methyl-6-(3,3,3-trifluoro-2-hydroxypropoxy)pyridin-2-yl)-2-(6-azaspiro[2.5]octan-6-yl)benzamide]

- IC50: 59 nM
SMILES: Cc1cc(NC(=O)c2ccc(NS(=O)(=O)CCO)cc2N2CCC3(CC2)CC3)nc(OCC(C)(C)O)c1 [Example 17-2, N-(6-(2-Hydroxy-2-methylpropoxy)-4-methylpyridin-2-yl)-4-((2-hydroxyethyl)sulfonamido)-2-(6-azaspiro[2.5]octan-6-yl)benzamide]
